Data published in patent publication US20030211072A1, “Compositions with enhanced oral bioavailability” (priority 2000, published 2003).
Where “and” joins values, the source holds several entries; their conditions need not be identical. Identical values can stand only once.

What was measured:
[1] = tested on: rat everted gut sacs; details: male, Wistar
[2] = tested on: rat everted gut sacs; experiment: Gut sac viability (active glucose transport)
[3] = tested on: rat everted gut sacs; experiment: Everted rat intestinal sacs: tissue uptake and serosal transfer of [3H]vinblastine, alone or with verapamil/enhancer
[4] = In vivo biodistribution of [3H]vinblastine (100 ng/kg) after oral gavage, alone or co-administered with ascophyllum, xanthan gum or polidocanol; details: for AUC Control of [3H]Vinblastine: 100 ng/kg alone
[5] = tested on: rat everted gut sacs; experiment: Everted rat intestinal sacs: tissue uptake and serosal transfer of [14C]doxorubicin, alone or with verapamil/enhancer
[6] = [3H]vinblastine 1 ng/ml alone (Control), 90 min
[7] = [3H]vinblastine 1 ng/ml, verapamil 0 ng/ml, 60 min
[8] = [3H]vinblastine (−) verapamil, 0 min
[9] = [3H]vinblastine (−) verapamil, 30 min
[10] = [3H]vinblastine (−) verapamil, 60 min
[11] = [3H]vinblastine (−) verapamil, 90 min
[12] = [3H]vinblastine (−) verapamil, 120 min
[13] = [3H]vinblastine alone 0.1 μg/ml, 60 min
[14] = [3H]vinblastine alone 0.3 μg/ml, 60 min
[15] = [3H]vinblastine alone 0.7 μg/ml, 60 min
[16] = [3H]vinblastine alone 1.0 μg/ml, 60 min
[17] = 5 min-24 h, vinblastine 100 ng/kg alone (control)
[18] = [3H]vinblastine 100 ng/kg alone, after 5 hours
[19] = [3H]vinblastine 100 ng/kg alone, after 24 hours
[20] = [14C]doxorubicin 1 ng/ml alone (Control), 90 min
[21] = [14C]doxorubicin 1 ng/ml, verapamil 0 ng/ml, 60 min
[22] = [14C]doxorubicin 10 ng/ml alone (Control), 90 min
[23] = [14C]doxorubicin 100 ng/ml alone (Control), 90 min
[24] = [14C]doxorubicin (−) verapamil, 0 min
[25] = [14C]doxorubicin (−) verapamil, 30 min
[26] = [14C]doxorubicin (−) verapamil, 60 min
[27] = [14C]doxorubicin (−) verapamil, 90 min
[28] = [14C]doxorubicin (−) verapamil, 120 min
[29] = [14C]doxorubicin alone 1 ng/ml, 60 min
[30] = [14C]doxorubicin alone 3 ng/ml, 60 min
[31] = [14C]doxorubicin alone 10 ng/ml, 60 min
[32] = [14C]doxorubicin alone 100 ng/ml, 60 min
[33] = [14C]doxorubicin alone 300 ng/ml, 60 min

With `COc1ccc(CCN(C)CCCC(C#N)(c2ccc(OC)c(OC)c2)C(C)C)cc1OC` (stereo not shown) [Verapamil, verapamil] the “effect on tissue uptake and serosal transfer of [14C]doxorubicin” value [1] was “significantly (p<0.05, unpaired student T-test) increased”, the “increase of [14C]doxorubicin uptake and accumulation into the tissue” value [1] was 2 fold and the “tissue viability (glucose actively transported)” value ([2]; verapamil, exception: 40 μg/ml combined with 1 ng/ml [3H]vinblastine) was “good tissue viability”.

For `CC[C@]1(O)C[C@@H]2CN(CCc3c([nH]c4ccccc34)[C@@](C(=O)OC)(c3cc4c(cc3OC)N(C)[C@H]3[C@@](O)(C(=O)OC)[C@H](OC(C)=O)[C@]5(CC)C=CCN6CC[C@]43[C@@H]65)C2)C1` [[^3H]Vinblastine, vinblastine], the “tissue viability (glucose actively transported)” value ([2]; [3H]vinblastine, exception: concentrations higher than 1 ng/ml) was “good tissue viability”, the Serosal transfer [3, 6] was 0.006 ng/mg of protein and the Tissue uptake [3, 6] was 0.061 + ng/mg of protein and 0.061 ng/mg of protein. The Total uptake [3, 6] was 0.067 ng/mg of protein, the Serosal transfer [3, 7] was 0.002 ± 0.000 ng/mg of protein and the Tissue uptake [3, 7] was 0.032 ± 0.005 ng/mg of protein. For the same molecule, the Serosal transfer [3, 8] was 0.000 ng/mg of protein, the Tissue uptake [3, 8] was 0.001 ng/mg of protein and the Total uptake [3, 8] was 0.001 ng/mg of protein. The Serosal transfer [3, 9] was 0.002 ng/mg of protein, the Tissue uptake [3, 9] was 0.005 ng/mg of protein and the Total uptake [3, 9] was 0.007 ng/mg of protein. For the same molecule, the Serosal transfer [3, 10] was 0.003 ng/mg of protein, the Tissue uptake [3, 10] was 0.032 ng/mg of protein and the Total uptake [3, 10] was 0.035 ng/mg of protein. The Serosal transfer [3, 11] was 0.006 ng/mg of protein, the Tissue uptake [3, 11] was 0.049 ng/mg of protein and the Total uptake [3, 11] was 0.055 ng/mg of protein. For the same molecule, the Serosal transfer [3, 12] was 0.008 ng/mg of protein, the Tissue uptake [3, 12] was 0.050 ng/mg of protein and the Total uptake [3, 12] was 0.058 ng/mg of protein. For the same molecule, the Serosal transfer [3, 13] was 0.000 ± 0.000 ng/mg of protein, the Tissue uptake [3, 13] was 0.009 ± 0.000 ng/mg of protein and the Serosal transfer [3, 14] was 0.001 ± 0.000 ng/mg of protein. For the same molecule, the Tissue uptake [3, 14] was 0.011 ± 0.001 ng/mg of protein, the Serosal transfer [3, 15] was 0.002 ± 0.001 ng/mg of protein and the Tissue uptake [3, 15] was 0.017 ± 0.001 ng/mg of protein. The Serosal transfer [3, 16] was 0.003 ± 0.001 ng/mg of protein, the Tissue uptake [3, 16] was 0.029 ± 0.007 ng/mg of protein and the “AUC Control of [^3H]Vinblastine, Blood” value [4, 17] was 53.47 % Dose/organ weight. The “AUC Control of [^3H]Vinblastine, Cecum” value [4, 17] was 20.20 % Dose/organ weight, the “AUC Control of [^3H]Vinblastine, Faeces” value [4, 17] was 4.58 % Dose/organ weight and the “AUC Control of [^3H]Vinblastine, Heart” value [4, 17] was 1.80 % Dose/organ weight. For the same molecule, the “AUC Control of [^3H]Vinblastine, Kidney” value [4, 17] was 0.98 % Dose/organ weight, the “AUC Control of [^3H]Vinblastine, Large Intestinal Wash” value [4, 17] was 6.46 % Dose/organ weight and the “AUC Control of [^3H]Vinblastine, Large Intestine” value [4, 17] was 1.08 % Dose/organ weight. For the same molecule, the “AUC Control of [^3H]Vinblastine, Liver” value [4, 17] was 4.36 % Dose/organ weight, the “AUC Control of [^3H]Vinblastine, Lung” value [4, 17] was 1.54 % Dose/organ weight and the “AUC Control of [^3H]Vinblastine, Small Intestinal Wash” value [4, 17] was 36.66 % Dose/organ weight. For the same molecule, the “AUC Control of [^3H]Vinblastine, Small Intestine” value [4, 17] was 1.69 % Dose/organ weight, the “AUC Control of [^3H]Vinblastine, Spleen” value [4, 17] was 2.78 % Dose/organ weight and the “AUC Control of [^3H]Vinblastine, Stomach” value [4, 17] was 5.34 % Dose/organ weight. For the same molecule, the “AUC Control of [^3H]Vinblastine, Urine” value [4, 17] was 1.79 % Dose/organ weight, the “AUC Control of [3H]Vinblastine” value ([4]; Blood, 5 min-24 h) was 53.47 % Dose/organ weight and the “AUC Control of [3H]Vinblastine” value ([4]; Cecum, 5 min-24 h) was 20.20 % Dose/organ weight. The “AUC Control of [3H]Vinblastine” value ([4]; Faeces, 5 min-24 h) was 4.58 % Dose/organ weight, the “AUC Control of [3H]Vinblastine” value ([4]; Heart, 5 min-24 h) was 1.80 % Dose/organ weight and the “AUC Control of [3H]Vinblastine” value ([4]; Kidney, 5 min-24 h) was 0.98 % Dose/organ weight. The “AUC Control of [3H]Vinblastine” value ([4]; Large Intestinal Wash, 5 min-24 h) was 6.46 % Dose/organ weight, the “AUC Control of [3H]Vinblastine” value ([4]; Large Intestine, 5 min-24 h) was 1.08 % Dose/organ weight and the “AUC Control of [3H]Vinblastine” value ([4]; Liver, 5 min-24 h) was 4.36 % Dose/organ weight. The “AUC Control of [3H]Vinblastine” value ([4]; Lung, 5 min-24 h) was 1.54 % Dose/organ weight, the “AUC Control of [3H]Vinblastine” value ([4]; Small Intestinal Wash, 5 min-24 h) was 36.66 % Dose/organ weight and the “AUC Control of [3H]Vinblastine” value ([4]; Small Intestine, 5 min-24 h) was 1.69 % Dose/organ weight. The “AUC Control of [3H]Vinblastine” value ([4]; Spleen, 5 min-24 h) was 2.78 % Dose/organ weight, the “AUC Control of [3H]Vinblastine” value ([4]; Stomach, 5 min-24 h) was 5.34 % Dose/organ weight and the “AUC Control of [3H]Vinblastine” value ([4]; Urine, 5 min-24 h) was 1.79 % Dose/organ weight. The “levels in blood over the time course” value ([4]; [3H]vinblastine 100 ng/kg alone, 5 min-24 h) was “remained constant”, the “% of the dose in the stomach” value ([4]; [3H]vinblastine 100 ng/kg alone, after 1 hour) was 1.2-1.6% and the “% found in the cecum” value [4, 18] was 1.7±0.3%. For the same molecule, the “% found in the faeces” value [4, 18] was 0.33±0.03%, the “% in the blood” value [4, 19] was 3% and the “% in the heart” value [4, 19] was 0.7%.

For `COc1cccc2c1C(=O)c1c(O)c3c(c(O)c1C2=O)C[C@@](O)(C(=O)CO)C[C@@H]3O[C@H]1C[C@H](N)[C@H](O)[C@H](C)O1` [[^14C]Doxorubicin, doxorubicin], the Serosal transfer [5, 20] was 0.03 ± 0.00 ng/mg of protein, the Tissue uptake [5, 20] was 0.02 ± 0.00 ng/mg of protein and the Total uptake [5, 20] was 0.05 ± 0.01 ng/mg of protein. For the same molecule, the Serosal transfer [5, 21] was 0.010 ± 0.000 ng/mg of protein, the Tissue uptake [5, 21] was 0.006 ± 0.000 ng/mg of protein and the Serosal transfer [5, 22] was 0.05 ± 0.00 ng/mg of protein. For the same molecule, the Tissue uptake [5, 22] was 0.19 ± 0.03 ng/mg of protein, the Total uptake [5, 22] was 0.24 ± 0.03 ng/mg of protein and the Serosal transfer [5, 23] was 0.05 ± 0.07 ng/mg of protein. For the same molecule, the Tissue uptake [5, 23] was 0.75 ± 0.13 ng/mg of protein, the Total uptake [5, 23] was 1.25 ± 0.07 ng/mg of protein and the Serosal transfer [5, 24] was 0.000 ng/mg of protein. The Tissue uptake [5, 24] was 0.001 ng/mg of protein, the Total uptake [5, 24] was 0.001 ng/mg of protein and the Serosal transfer [5, 25] was 0.008 ng/mg of protein. The Tissue uptake [5, 25] was 0.005 ng/mg of protein, the Total uptake [5, 25] was 0.013 ng/mg of protein and the Serosal transfer [5, 26] was 0.017 ng/mg of protein. The Tissue uptake [5, 26] was 0.007 ng/mg of protein, the Total uptake [5, 26] was 0.024 ng/mg of protein and the Serosal transfer [5, 27] was 0.027 ng/mg of protein. For the same molecule, the Tissue uptake [5, 27] was 0.025 ng/mg of protein, the Total uptake [5, 27] was 0.052 ng/mg of protein and the Serosal transfer [5, 28] was 0.024 ng/mg of protein. The Tissue uptake [5, 28] was 0.030 ng/mg of protein, the Total uptake [5, 28] was 0.054 ng/mg of protein and the Serosal transfer [5, 29] was 0.0017 ± 0.002 ng/mg of protein. The Tissue uptake [5, 29] was 0.007 ± 0.005 ng/mg of protein, the Serosal transfer [5, 30] was 0.029 ± 0.005 ng/mg of protein and the Tissue uptake [5, 30] was 0.082 ± 0.015 ng/mg of protein. For the same molecule, the Serosal transfer [5, 31] was 0.193 ± 0.028 ng/mg of protein, the Tissue uptake [5, 31] was 0.393 ± 0.078 ng/mg of protein and the Serosal transfer [5, 32] was 1.131 ± 0.500 ng/mg of protein. The Tissue uptake [5, 32] was 5.598 ± 1.280 ng/mg of protein, the Serosal transfer [5, 33] was 3.375 ± 0.900 ng/mg of protein and the Tissue uptake [5, 33] was 25.734 ± 3.668 ng/mg of protein. For the same molecule, the “serosal transfer time course” value ([5]; [14C]doxorubicin, levels plateaued after 90 min) was “only linear for 90 min”.
